Assays:
HepG2 cells = assay: Steatosis in HepG2 cells cultured in fatty medium, Nile Red staining; format: cell-based
Procedure: Briefly, fatty medium was prepared by 1:1 mixture of oleic acid and palmitic acid (Sigma Aldrich) with 10% FFA-free bovine serum albumin (BSA) solution (Sigma Aldrich) in PBS. Essentially, 100 mM of oleic acid and palmitic acid was prepared in 99% methanol. Palmitic acid was prepared by shaking at 500 rpm 50° C. for 20 mins. 10 mM of oleic acid and palmitic acid was incubated with 10% BSA in PBS at 50° C. for 30 mins. A final concentration of 100 uM FFA mixture was made in the final cell culture medium. Cells were incubated in fatty medium for 4 days to induce fatty liver. Cells were then treated with A27 at various concentrations for 3 days in the presence of the fatty medium. To determine the degree of steatosis, cells were stained with 1 mg/ml Nile Red solution (Sigma Aldrich) in cell culture medium for 15 mins at 37° C. and florescence signal was measured (see FIG. 1).

[1] = tested on: hepatic steatosis in C57/BL6 mice on high fat diet; assay: Hepatic steatosis in C57/BL6 mice on high fat diet, liver ultrasound; format: in vivo; conditions: 100 mg/kg/day
HBV = assay: Reduction of HBV surface antigen in cells infected with HBV; format: cell-based; conditions: Hepatitis B virus; cells infected with HBV (FIG. 4: engineered human liver tissue)
Procedure: We then discovered that A27 had antiviral activity against HBV, showing reduction in HBV surface antigen in cells infected with HBV with an EC50 of ˜1 μM (FIG. 4).

SARS-CoV-2 [2] = assay: microbe, parasite or virus in culture; format: cell-based; conditions: Severe acute respiratory syndrome coronavirus 2, read-out: EC50, SARS-CoV-2 genome replication
SARS-CoV-2 [3] = assay: Combination of A27 with other antivirals against SARS-CoV-2; format: cell-based
Excerpt: Thus, A27 can be combined with nirmatrelvir or paxlovid.

[4] = tested on: Venezuelan equine encephalitis virus (VEEV) TC83 strain; assay: microbe, parasite or virus in culture; format: cell-based; conditions: U-87 MG, read-out: EC50, VEEV genome replication
PR8 virus (ATCC-VR-1469) = assay: Influenza PR8 plaque assay in MDCK cells; format: cell-based
apolipoprotein B (apoB) = apolipoprotein B (apoB) (Homo sapiens, UniProt P04114); assay: Binding to apolipoprotein B
[5] = tested on: TMPRSS2-ACE2-Huh7.5 cells; assay: Toxicity in the SARS-CoV-2 cell culture assay; conditions: SARS-CoV-2 assay
RSV-luc5 virus = assay: RSV-luc5 luciferase replication assay in HeLa cells; conditions: human respiratory syncytial virus, 72 h, read-out: EC50, RSV replication

Chain of apolipoprotein B (apoB) (P04114 28-4563, species assumed): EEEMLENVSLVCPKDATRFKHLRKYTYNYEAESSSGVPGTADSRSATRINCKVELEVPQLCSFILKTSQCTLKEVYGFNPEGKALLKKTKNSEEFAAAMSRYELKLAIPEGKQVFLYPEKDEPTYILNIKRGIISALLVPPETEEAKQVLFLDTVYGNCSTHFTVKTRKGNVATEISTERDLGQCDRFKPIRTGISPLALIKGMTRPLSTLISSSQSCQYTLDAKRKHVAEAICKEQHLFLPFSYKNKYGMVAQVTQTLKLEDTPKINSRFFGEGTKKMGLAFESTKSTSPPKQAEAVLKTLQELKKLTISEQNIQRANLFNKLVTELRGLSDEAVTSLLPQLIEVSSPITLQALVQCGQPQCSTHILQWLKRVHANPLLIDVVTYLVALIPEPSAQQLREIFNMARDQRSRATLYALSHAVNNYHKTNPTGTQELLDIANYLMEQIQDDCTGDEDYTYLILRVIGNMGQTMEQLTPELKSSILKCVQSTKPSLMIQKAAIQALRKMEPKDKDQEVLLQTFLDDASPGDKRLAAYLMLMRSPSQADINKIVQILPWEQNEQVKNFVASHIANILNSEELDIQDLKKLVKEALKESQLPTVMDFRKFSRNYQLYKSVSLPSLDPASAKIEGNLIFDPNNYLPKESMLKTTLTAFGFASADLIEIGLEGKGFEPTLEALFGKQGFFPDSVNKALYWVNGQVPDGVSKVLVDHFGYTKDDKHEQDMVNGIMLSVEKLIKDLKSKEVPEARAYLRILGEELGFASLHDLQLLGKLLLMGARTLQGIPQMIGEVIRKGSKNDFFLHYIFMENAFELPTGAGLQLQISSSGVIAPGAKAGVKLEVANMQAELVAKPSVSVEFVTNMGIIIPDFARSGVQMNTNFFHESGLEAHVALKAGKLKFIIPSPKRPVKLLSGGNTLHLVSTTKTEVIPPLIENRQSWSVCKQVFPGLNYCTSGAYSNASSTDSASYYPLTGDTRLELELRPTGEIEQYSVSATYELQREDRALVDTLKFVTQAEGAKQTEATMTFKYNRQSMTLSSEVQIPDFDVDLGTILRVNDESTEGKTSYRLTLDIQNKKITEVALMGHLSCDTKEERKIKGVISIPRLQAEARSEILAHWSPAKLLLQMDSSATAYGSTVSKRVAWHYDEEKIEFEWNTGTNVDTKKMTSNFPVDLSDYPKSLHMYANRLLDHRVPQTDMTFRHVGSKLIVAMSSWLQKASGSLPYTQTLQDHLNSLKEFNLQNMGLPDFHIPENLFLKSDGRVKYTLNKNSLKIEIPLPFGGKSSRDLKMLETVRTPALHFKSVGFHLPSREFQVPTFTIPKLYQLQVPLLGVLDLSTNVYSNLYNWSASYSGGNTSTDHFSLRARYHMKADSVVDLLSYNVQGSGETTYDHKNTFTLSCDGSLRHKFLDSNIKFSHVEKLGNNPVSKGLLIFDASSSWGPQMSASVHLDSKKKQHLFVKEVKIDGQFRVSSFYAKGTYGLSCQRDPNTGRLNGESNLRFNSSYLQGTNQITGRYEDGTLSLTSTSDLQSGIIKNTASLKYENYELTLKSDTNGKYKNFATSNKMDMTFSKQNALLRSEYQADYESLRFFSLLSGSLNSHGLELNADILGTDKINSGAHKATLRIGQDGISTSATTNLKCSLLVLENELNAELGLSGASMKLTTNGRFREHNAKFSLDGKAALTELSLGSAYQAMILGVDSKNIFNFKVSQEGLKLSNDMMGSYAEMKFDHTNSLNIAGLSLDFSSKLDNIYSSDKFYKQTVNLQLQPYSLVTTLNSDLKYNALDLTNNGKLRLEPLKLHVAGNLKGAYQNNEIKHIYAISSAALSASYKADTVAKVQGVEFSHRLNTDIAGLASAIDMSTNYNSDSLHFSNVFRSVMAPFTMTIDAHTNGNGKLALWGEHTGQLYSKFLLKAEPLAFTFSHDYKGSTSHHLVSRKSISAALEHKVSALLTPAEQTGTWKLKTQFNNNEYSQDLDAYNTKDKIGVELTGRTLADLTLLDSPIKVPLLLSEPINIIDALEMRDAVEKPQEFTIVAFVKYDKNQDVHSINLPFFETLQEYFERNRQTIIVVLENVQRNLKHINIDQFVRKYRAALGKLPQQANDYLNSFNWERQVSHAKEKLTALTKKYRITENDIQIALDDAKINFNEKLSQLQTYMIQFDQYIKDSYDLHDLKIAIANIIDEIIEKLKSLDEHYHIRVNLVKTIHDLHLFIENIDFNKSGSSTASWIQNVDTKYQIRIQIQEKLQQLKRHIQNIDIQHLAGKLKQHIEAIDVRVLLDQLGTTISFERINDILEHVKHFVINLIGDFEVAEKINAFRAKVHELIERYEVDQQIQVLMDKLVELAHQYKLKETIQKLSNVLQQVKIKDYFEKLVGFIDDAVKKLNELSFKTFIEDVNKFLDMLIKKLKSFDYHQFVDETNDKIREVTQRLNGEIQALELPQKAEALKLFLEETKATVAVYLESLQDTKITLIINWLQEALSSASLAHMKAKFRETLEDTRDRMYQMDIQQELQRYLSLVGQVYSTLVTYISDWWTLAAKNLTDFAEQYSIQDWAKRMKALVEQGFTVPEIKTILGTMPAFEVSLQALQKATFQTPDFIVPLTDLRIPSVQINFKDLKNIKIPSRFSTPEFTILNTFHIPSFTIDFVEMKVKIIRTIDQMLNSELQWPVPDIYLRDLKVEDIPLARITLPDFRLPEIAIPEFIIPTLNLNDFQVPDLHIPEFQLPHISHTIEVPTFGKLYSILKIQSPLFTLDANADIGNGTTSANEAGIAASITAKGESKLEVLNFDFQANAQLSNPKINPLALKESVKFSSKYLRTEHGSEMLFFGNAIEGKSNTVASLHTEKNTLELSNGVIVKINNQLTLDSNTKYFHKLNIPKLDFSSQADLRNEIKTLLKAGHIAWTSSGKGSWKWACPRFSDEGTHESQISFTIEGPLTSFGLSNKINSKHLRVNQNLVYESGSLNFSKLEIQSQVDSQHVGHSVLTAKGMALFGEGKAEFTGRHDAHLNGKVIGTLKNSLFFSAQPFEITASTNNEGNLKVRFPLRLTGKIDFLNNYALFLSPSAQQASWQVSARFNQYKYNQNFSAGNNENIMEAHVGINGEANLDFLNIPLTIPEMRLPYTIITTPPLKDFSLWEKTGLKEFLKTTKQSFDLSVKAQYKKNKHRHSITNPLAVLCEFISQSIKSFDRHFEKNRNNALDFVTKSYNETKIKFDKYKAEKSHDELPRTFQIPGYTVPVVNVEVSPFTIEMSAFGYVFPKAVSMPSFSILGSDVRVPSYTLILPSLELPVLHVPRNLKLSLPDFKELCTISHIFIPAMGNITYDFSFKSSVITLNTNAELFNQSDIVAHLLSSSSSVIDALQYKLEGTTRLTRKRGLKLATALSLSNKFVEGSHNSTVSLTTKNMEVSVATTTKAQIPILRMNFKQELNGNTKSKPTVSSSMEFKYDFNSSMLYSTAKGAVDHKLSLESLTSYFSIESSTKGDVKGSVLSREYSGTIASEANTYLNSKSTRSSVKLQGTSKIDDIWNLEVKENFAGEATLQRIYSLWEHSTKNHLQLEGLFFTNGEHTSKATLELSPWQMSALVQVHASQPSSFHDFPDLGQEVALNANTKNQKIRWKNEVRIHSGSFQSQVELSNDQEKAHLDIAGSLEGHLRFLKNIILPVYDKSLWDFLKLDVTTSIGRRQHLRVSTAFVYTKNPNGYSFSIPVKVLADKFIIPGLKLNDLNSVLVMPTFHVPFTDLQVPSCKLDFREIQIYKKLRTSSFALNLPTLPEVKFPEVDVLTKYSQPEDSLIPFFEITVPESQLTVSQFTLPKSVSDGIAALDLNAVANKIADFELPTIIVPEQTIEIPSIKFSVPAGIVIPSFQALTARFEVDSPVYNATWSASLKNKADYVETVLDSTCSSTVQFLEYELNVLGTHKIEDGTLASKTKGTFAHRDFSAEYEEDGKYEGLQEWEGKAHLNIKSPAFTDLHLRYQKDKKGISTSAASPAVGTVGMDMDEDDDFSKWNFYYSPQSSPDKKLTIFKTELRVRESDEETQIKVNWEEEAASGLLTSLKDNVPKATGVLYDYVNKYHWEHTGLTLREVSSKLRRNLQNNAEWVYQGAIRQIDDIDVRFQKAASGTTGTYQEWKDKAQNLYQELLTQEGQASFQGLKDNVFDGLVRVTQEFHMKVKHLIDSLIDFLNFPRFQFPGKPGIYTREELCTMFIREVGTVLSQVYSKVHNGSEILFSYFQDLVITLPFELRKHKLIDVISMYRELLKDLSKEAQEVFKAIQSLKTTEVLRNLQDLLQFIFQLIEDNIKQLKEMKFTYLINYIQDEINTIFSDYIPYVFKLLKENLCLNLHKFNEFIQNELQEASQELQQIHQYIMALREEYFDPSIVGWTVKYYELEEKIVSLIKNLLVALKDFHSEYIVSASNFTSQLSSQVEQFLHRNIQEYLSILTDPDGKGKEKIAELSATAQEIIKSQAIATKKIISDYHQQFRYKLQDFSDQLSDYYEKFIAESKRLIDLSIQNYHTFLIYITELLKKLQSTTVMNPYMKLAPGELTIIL

## Cn1nc(C(=O)NC2CCN(CCN3CCCC3)CC2)c2ccc(N3CCCCCC3)nc21 [Compound A27]
HepG2 cells; HepG2 cells, A27 at various concentrations for 3 days in fatty medium
  lipid accumulation (Nile Red fluorescence): dose-dependent decrease in lipid accumulation
HepG2 cells; Homo sapiens, HepG2, 72 h, read-out: half effective concentration (EC50), inhibition of formation of steatosis
  EC50: ~500 nM
[1]; 4 weeks
  tolerability in mice: tolerated A27 well
[1]; high fat diet for 4 weeks, versus vehicle
  hepatic steatosis measured by liver ultrasound: reduces hepatic steatosis
HBV
  EC50: ~1000 nM
SARS-CoV-2 [2]
  EC50: 803 nM
SARS-CoV-2 [3]; with a polymerase inhibitor nucleoside analog (e.g. EIDD2801)
  combination effect with polymerase inhibitor nucleoside analog: additive
SARS-CoV-2 [3]; with protease inhibitors against SARS-CoV-2 (e.g. PF-07321332)
  combination effect with protease inhibitors: synergistic
[4]
  EC50: 7900 nM
PR8 virus (ATCC-VR-1469)
  plaque size compared to oseltamivir treated wells: smaller-sized plaques
Apolipoprotein B (apoB)
  binding to apolipoprotein B (apoB): can bind
U87-MG cells
  toxicity: without any evidence of toxicity
[5]
  toxicity: without any evidence of toxicity
RSV-luc5 virus
  EC50: 1100 nM
